Data taken from patent US10308617B2, “Triazole benzamide derivatives and the compositions and methods of treatment regarding the same” (An2H Discovery Limited, priority 2016, dated 2019).

Key:
[1] = Oral Bioavailability (PO) and Pharmacokinetics Assay; type: in vivo, Sprague-Dawley rats; settings: rat; for AUC(0-t) / clearance / C0 (back-extrapolated initial plasma concentration after IV dose) / Vd: male, Sprague-Dawley, plasma; for C0 (back-extrapolated initial plasma concentration after IV dose): read-out: C0 or Cmax (ng/mL): C0; for Vd: iv, read-out: Vss; for Vd / Vss: 1 mg/kg
Procedure: The pharmacokinetics and oral bioavailability of various compounds was evaluated following IV or PO administration to fasted male Sprague-Dawley rats (N=3/route/dose). Each compound was administered to fasted male Sprague-Dawley rats as a single dose of 1 mg/kg (IV) or 5 mg/kg (PO). For IV dosing, each compound was formulated in 10% DMA/15% Solutol/75% HPβ-CD (20%) as a 1 mg/mL solution for IV (1 mL/kg) and for PO (5 mL/kg) administrations.
Blood samples (0.250 mL) were collected into EDTA tubes then processed to generate plasma samples. Blood samples were collected at pre-dose, 0.083, 0.25, 0.5, 1, 2, 4, 8 and 24 hours post-dose administration. Plasma concentrations of each compound were determined using LC-MS/MS with a lower limit of quantitation of 1.0 ng/mL. The pharmacokinetic parameters were determined by non-compartmental methods using WinNonlin.
The pharmacokinetic parameters of each compound were determined by non-compartmental analysis (Model 201 for IV administration and Model 200 for PO administration) using WinNonlin Version 6.4 (Pharsight, Mountain View, Calif.). The area under the curve from the time of dosing to the last measurable concentration, AUC(0-t), was calculated by the linear trapezoidal rule. The area under the concentration-time curve extrapolated to infinity, AUC(0-∞), was calculated as follows: AUC(0-∞)=AUC(0-t)+Clast/k
Where Clast is the last measurable concentration and k is the first order rate constant associated with the terminal elimination phase, estimated by linear regression of log concentration versus time. The half-life (T1/2) of the terminal elimination phase was estimated based on the following equation: T1/2=0.693/k
K was determined based on at least three timepoints with R^2≥0.9. Additional parameters were calculated as follows: CL=Dose/AUC(0-∞)
Where CL is the clearance of An2H compound in L/hr/kg, Dose is the administered dose in mg/kg. Mean residence time (MRT) was calculated as follows: MRT=AUMC(0-∞)/AUC(0-∞)
Where area under the first moment curve extrapolated to infinity (AUMC(0-∞)) was calculated as follows: AUMC(0-∞)=AUMClast+tlast*Clast/k+Clast/k^2
The steady state volume of distribution (Vss) was calculated as follows: Vss=CL×MRT.
The oral bioavailability based on AUC(0-t) was calculated as follows: F (%)=AUCPO/AUCIV×DoseIV/DosePO×100. For IV administration, the initial concentration, Co is reported and is an extrapolated value. For PO administration, the maximum concentration, Cmax is report and is an observed value.

[2] = system: subcutaneous HCT-116 (colon cancer) xenograft; test: In Vivo Cancer Xenograft Assay, HCT-116; design: species or system nude mice; settings: 5 or 10 mg/kg daily IP, tumor volume to day 26
Procedure: (§1) Compound F was evaluated for in vivo therapeutic efficacy in the treatment of subcutaneous HCT-116 (colon cancer) and Calu-6 (lung cancer) xenograft models in nude mice.
(§2) Each mouse was inoculated subcutaneously at the flank region with either HCT-116 or Calu-6 tumor cells ([…]) in 0.1 ml of 1×PBS mixed with Matrigel (1:1) for tumor development and xenotransplantation.
(§3) Twenty (20) animals with approx […] tumors were selected for HCT-116 follow up experiment and randomly placed into Groups 1, 2, 3, and 4, wherein Group 1 was for mice administered with a vehicle negative control; Group 2 was positive control of Mice treated with Bevacizumab at 5 mg/kg every three days; Group 3 was mice treated with 5 mg/kg of Compound f daily for up to 20 days; and Group 4 was mice treated with 10 mg/kg of Compound F daily for up to 20 days. The vehicle with or without drug was administered to the mouse by intraperitoneal injection. […]
(§4) After tumor cells inoculation, the animals were checked daily for morbidity and mortality. […] Death and observed clinical signs were recorded. Tumor volumes were measured every three days in two dimensions using an electronic caliper, and the volume data are expressed in mm^3 using the formula: V=0.5 a×b2 where a and b are the long and short diameters of the tumor, respectively. Tumor volume average was then recorded for each day for groups 1-4 until day 26. […]

[3] = system: subcutaneous Calu-6 (lung cancer) xenograft; test: In Vivo Cancer Xenograft Assay, Calu-6; design: species or system nude mice; settings: 5 or 10 mg/kg daily IP
Procedure: as §1, §2, §3, §4

Row | SMILES | AUC(0-t) ([1]; IV bolus 1 mg/kg) [ng·h/mL] | clearance ([1]; IV bolus 1 mg/kg) [mL/min/kg] | C0 (back-extrapolated initial plasma concentration after IV dose) ([1]; IV bolus 1 mg/kg) [ng/mL] | AUC(0-t) ([1]; PO 5 mg/kg) [ng·h/mL] | Vd ([1]; IV bolus 1 mg/kg) [L/kg] | Vss ([1]; IV bolus 1 mg/kg) [L/kg] | delay of subcutaneous HCT-116 tumor growth [2] | delay of subcutaneous Calu-6 tumor growth [3]
1 | O=C(Nc1nc(NC(=O)c2ccccc2)n(-c2ccccc2)n1)c1ccccc1 [Compound A, N,N′-(1-phenyl-1H-1,2,4-triazole-3,5-diyl)dibenzamide] | 1100 | 15.7 | 4520 | 371 | 0.38 | 0.381 |  | 
2 | Cc1ccccc1C(=O)Nc1nc(NC(=O)c2ccccc2C)n(-c2ccccc2)n1 [Compound F, 2-methyl-N-[5-[(2-methylbenzoyl)amino]-1-phenyl-1,2,4-triazol-3-yl]benzamide] | 4270 | 4.03 | 5980 |  | 0.406 |  | effective of delaying growth | effective of delaying growth
3 | Cc1ccccc1C(=O)Nc1nc(NC(=O)c2ccccc2)n(-c2ccccc2)n1 [Compound H] | 1370 | 12.2 | 6740 | 410 | 0.4 | 0.401 |  | 

More lines, main results first:

Row | AUC(0-t) ([1]; IV bolus 1 mg/kg) [ng·h/mL] | clearance ([1]; IV bolus 1 mg/kg) [mL/min/kg] | C0 (back-extrapolated initial plasma concentration after IV dose) ([1]; IV bolus 1 mg/kg) [ng/mL] | AUC(0-t) ([1]; PO 5 mg/kg) [ng·h/mL] | Vd ([1]; IV bolus 1 mg/kg) [L/kg] | Vss ([1]; IV bolus 1 mg/kg) [L/kg] | SMILES | delay of subcutaneous HCT-116 tumor growth [2] | delay of subcutaneous Calu-6 tumor growth [3]
4 | 1030 | 16.6 | 3980 | 114 | 0.42 | 0.416 | O=C(/C=C/c1ccccc1)Nc1nc(NC(=O)c2ccccc2)nn1-c1ccccc1 [Compound C, N-(5-cinnamamido-1-phenyl-1H-1,2,4-triazol-3-yl)benzamide] |  | 
5 | 902 | 18.4 | 2120 | 172 | 0.71 | 0.707 | Cc1ccccc1C(=O)Nc1nc(NC(=O)c2ccccc2)nn1-c1ccccc1 [Compound K, N-(5-benzamido-2-phenyl-1,2,4-triazol-3-yl)-2-methyl-benzamide] |  | 
